According to ChEMBL document CHEMBL6134926, “Targeting KRAS G12D Mutations: Advances in Small Molecule Inhibitors and PROTAC Technology” (ACS Med Chem Lett, 2025):

Assays:
SOS1-KRAS = SOS1-KRAS (Homo sapiens, UniProt P01116, G12D); experiment: (§1) Inhibition of GST-tagged KRAS G12D mutant (2 to 169 residues) (unknown origin)/SOS1 catalytic domain (564 to 1069 residues) (unknown origin) protein-protein interaction preincubated with compound for 90 mins followed by SOS1 and GTP-DY-647P1 addition and measured after 30 mins by fluorescence based nucleotide exchange assay; format: protein-complex assay
[1] = as §1, with “G12V” for “G12D”, “60” for “30”; parameters: species or system Homo sapiens
[2] = Inhibition of ERK phosphorylation in human GP2d cells harboring KRAS G12D mutant incubated for 3 hrs by ICW assay; format: cell-based

| SMILES | IC50 (SOS1-KRAS) [nM] | IC50 [1] [nM] | IC50 [2] [nM] |
| --- | --- | --- | --- |
| CN(C)C(=O)c1nn2c(c1Cl)CN(c1nc(OC[C@@]34CCCN3C[C@H](F)C4)nc(N3CC(c4csc(N)c4C#N)C3)c1C#N)CCC2 | < 10 | < 10 | 100 |
| CN(C)C(=O)c1nn2c(c1Cl)CN(c1cc(N3CC(C)(c4csc(N)c4C#N)C3)nc(OC[C@@]34CCCN3C[C@H](F)C4)n1)CCC2 | 10 |  | 1000 |
| CN(C)C(=O)c1nn2c(c1Cl)CN(c1nc(OC[C@@]34CCCN3C[C@H](F)C4)nc(N3CC(c4c(Cl)sc(N)c4C#N)C3)c1C#N)CCC2 | < 10 | < 10 | 1 |
| C[C@H](c1cccnc1N)N(C)c1nc(OC[C@@]23CCCN2C[C@H](F)C3)nc(N2CC(C)(c3csc(N)c3C#N)C2)c1C#N | < 10 | < 10 | 10 |

Other lines, results leading:

| IC50 (SOS1-KRAS) [nM] | IC50 [1] [nM] | IC50 [2] [nM] | SMILES |
| --- | --- | --- | --- |
| < 10 | < 10 | 10 | CN(C)C(=O)c1nn2c(c1Cl)CN(c1nc(OC[C@@]34CCCN3C[C@H](F)C4)nc(N3CCC(c4c(Cl)sc(N)c4C#N)C3)c1C#N)CCC2 (stereo partly specified) |
| < 10 |  | 10 | CC1(c2csc(N)c2C#N)CN(c2nc(OC[C@@]34CCCN3C[C@H](F)C4)nc(N3C[C@H]4CC[C@@H](C3)N4)c2C#N)C1 |
